From BindingDB's records for doi:10.1006/frne.1999.0183 (Royal Victoria Hospital, 1999)
Starred links: 1 amine or outer side, 2 acyl side, 3 side chain; linkers in the order of their positions; H or OH if unused. Non-standard residues stand in square brackets, D forms with d. Residues, ends and D or L forms follow the SMILES beside them. *: point of attachment. pNA = O=[N+]([O-])c1ccc(N*)cc1; Nle = CCCC[CH](N)C(=O)O; CO = O=C([*:1])[*:2]

Columns and labels:
[1] = target: Somatostatin receptor type 4 (Homo sapiens, UniProt P31391)
[2] = target: Somatostatin receptor type 1 (Homo sapiens, UniProt P30872)
[3] = target: Somatostatin receptor type 5 (Homo sapiens, UniProt P35346)
[4] = target: Somatostatin receptor type 2 (Homo sapiens, UniProt P30874)
[5] = target: Somatostatin receptor type 3 (Homo sapiens, UniProt P32745)
Sequence of Somatostatin receptor type 3 (P32745 whole entry): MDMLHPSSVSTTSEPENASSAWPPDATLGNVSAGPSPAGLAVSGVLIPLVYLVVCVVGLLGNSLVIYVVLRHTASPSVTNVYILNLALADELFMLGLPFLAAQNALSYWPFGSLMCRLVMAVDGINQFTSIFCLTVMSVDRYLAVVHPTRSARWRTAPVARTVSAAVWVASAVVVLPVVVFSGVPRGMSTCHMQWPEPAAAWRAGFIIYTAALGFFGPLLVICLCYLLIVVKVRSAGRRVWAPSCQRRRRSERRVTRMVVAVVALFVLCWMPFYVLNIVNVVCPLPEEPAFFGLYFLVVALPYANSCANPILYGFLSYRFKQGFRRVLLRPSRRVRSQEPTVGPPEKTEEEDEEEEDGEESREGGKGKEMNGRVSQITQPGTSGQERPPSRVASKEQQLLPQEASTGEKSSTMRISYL

Sequence of Somatostatin receptor type 4 (P31391 whole entry): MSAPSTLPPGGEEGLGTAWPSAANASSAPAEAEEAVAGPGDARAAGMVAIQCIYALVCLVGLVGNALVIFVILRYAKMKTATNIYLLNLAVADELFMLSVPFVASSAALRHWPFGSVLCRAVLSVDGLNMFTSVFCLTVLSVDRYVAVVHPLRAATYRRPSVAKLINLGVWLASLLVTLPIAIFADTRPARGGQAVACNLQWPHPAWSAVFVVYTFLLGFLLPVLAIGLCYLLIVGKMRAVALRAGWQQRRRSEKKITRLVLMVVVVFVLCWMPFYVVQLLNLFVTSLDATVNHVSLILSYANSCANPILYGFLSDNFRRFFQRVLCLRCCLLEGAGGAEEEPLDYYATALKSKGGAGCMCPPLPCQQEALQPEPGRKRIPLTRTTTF
Sequence of Somatostatin receptor type 1 (P30872 whole entry): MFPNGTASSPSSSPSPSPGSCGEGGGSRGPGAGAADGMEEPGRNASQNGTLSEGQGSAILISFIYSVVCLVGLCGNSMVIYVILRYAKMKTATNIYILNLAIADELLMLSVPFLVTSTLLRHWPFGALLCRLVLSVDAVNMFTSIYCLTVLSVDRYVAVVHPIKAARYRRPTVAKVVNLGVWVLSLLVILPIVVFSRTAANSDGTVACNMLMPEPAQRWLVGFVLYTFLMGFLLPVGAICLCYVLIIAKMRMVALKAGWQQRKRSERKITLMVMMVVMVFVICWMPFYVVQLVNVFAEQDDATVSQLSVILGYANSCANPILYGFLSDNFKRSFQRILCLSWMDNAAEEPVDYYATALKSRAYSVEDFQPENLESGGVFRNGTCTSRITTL
Sequence of Somatostatin receptor type 2 (P30874 whole entry): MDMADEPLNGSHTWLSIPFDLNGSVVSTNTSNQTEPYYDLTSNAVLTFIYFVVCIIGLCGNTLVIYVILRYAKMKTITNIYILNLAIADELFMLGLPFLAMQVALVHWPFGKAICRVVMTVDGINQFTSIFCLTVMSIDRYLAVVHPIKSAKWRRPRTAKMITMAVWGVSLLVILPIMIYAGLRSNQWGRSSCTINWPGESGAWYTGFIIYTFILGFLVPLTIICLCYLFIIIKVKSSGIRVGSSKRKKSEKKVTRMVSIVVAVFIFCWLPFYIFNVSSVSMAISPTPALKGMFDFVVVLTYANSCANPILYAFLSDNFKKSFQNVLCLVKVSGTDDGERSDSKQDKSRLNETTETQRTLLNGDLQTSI
Sequence of Somatostatin receptor type 5 (P35346 whole entry): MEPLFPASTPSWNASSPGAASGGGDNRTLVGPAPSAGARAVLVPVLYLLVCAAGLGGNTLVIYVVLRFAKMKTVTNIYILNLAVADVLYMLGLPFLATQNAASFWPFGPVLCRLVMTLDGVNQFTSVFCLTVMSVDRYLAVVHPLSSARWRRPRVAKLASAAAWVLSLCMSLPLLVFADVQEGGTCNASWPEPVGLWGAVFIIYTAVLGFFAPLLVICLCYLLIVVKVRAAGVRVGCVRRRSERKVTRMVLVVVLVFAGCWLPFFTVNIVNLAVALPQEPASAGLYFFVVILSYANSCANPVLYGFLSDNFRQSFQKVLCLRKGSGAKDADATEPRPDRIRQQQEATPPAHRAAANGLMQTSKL

Row | Structure (SMILES) | Ki [1] | Ki [2] | Ki [3] | Ki [4] | Ki [5]
1 | C[C@H](N)COC(=O)[C@H](CCCCN)NC(=O)Cc1c(-c2ccc3ccccc3c2)[nH]c2c1ccc1ccccc12 | 82 nM | 3.3 nM | 0.4 nM | 52 nM | 64 nM
2 | CCCCC(NC(=O)NC(Cc1ccccc1)C(=O)Nc1ccc([N+](=O)[O-])cc1)C(=O)NC(CCCCN)C(=O)OC (stereo unspecified) [CAS_5311373] ({pNA-Phe-CO}-[Nle]-Lys-OMe; configuration not given here) | 8650 nM | 1260 nM | 1200 nM | > 10000 nM | 24 nM
3 | CSCC[C@H](NC(=O)[C@H](CCCN=C(N)N)NC(=O)[C@@H](N)CC(=O)O)C(=O)N1CCC[C@H]1C(=O)N[C@H]1CSSC[C@@H](C(=O)N[C@@H](CCCCN)C(=O)O)NC(=O)[C@H](CO)NC(=O)[C@H](CO)NC(=O)[C@H](Cc2ccccc2)NC(=O)[C@H]([C@@H](C)O)NC(=O)[C@H](CCCCN)NC(=O)[C@H](Cc2c[nH]c3ccccc23)NC(=O)[C@H](Cc2ccccc2)NC(=O)[C@H](Cc2ccccc2)NC(=O)[C@H](CC(N)=O)NC(=O)[C@H](CCCN=C(N)N)NC1=O [Cortistatin] | 0.5 nM | 7 nM | 0.4 nM | 0.6 nM | 0.6 nM
4 | CC(C)NCc1ccc(C[C@@H]2NC(=O)[C@@H](Cc3c[nH]c4ccccc34)NC(=O)[C@H](Cc3ccccc3)NC(=O)[C@H](Cc3ccccc3)NC(=O)[C@H](CCCCN)NC(=O)[C@@H](N)CSSC[C@@H](C(=O)O)NC(=O)[C@H](CO)NC(=O)[C@H]([C@@H](C)O)NC(=O)[C@H](Cc3ccccc3)NC(=O)[C@H]([C@@H](C)O)NC2=O)cc1 [CH-275] (HELM PEPTIDE1{C.K.F.F.[dW].[CC(C)NCc1ccc(C[C@H](N[*:1])C(=O)[*:2])cc1].T.F.T.S.C}$PEPTIDE1,PEPTIDE1,1:R3-11:R3$$$V2.0) | 4.3 nM | 3.2 nM | 1000 nM |  | 1000 nM
5 | CC(c1c[nH]c2ccccc12)C(NC(=O)N1CCC(n2c(=O)[nH]c3ccccc32)CC1)C(=O)NCC1CCCC(CN)C1 (stereo unspecified) [CAS_5311372] | 310 nM | 2760 nM | 4260 nM | 0.05 nM | 729 nM
6 | CC(C)[C@@H]1NC(=O)[C@H](CCCCN)NC(=O)[C@@H](Cc2c[nH]c3ccccc23)NC(=O)[C@H](Cc2ccc(O)cc2)NC(=O)[C@H](C)N(C)C(=O)[C@H](Cc2ccccc2)NC1=O [seglitide] |  | 1000 nM |  |  | 27 nM

The remaining lines, values ahead:

Row | Ki [1] | Ki [2] | Ki [3] | Ki [4] | Ki [5] | Structure (SMILES)
7 | 0.7 nM | 199 nM | 3880 nM | 4720 nM | 1280 nM | COC(=O)C(CCCNC(=N)N)NC(=O)CCCc1c(-c2ccccc2)[nH]c2c(F)cc(F)cc12 [L-803,087]
8 | 170 nM | 1.4 nM | 3600 nM | 1870 nM | 2240 nM | CC(CCN)CC(C)(C)CNC(=O)[C@@H](Cc1cccc2ccccc12)NC(=O)N(CCc1ccccc1)CCc1ccccn1 (stereo partly drawn) [L-797591]
